Assay results: PubChem BioAssay (NCI)
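Where inhibition never reached the appropriate level, the endpoint shown equals the highest concentration tested. Otherwise, values were interpolated linearly from a five-concentration, 48-hour dose response in 96-well plates. Here, GI50 denotes the concentration required for 50% inhibition of growth. TGI is the concentration that stops growth completely.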

Tests used:
Experiment in all cases: NCI anticancer screen, dose series, 48 h
[1] = test system: BT-549 breast
[2] = test system: DU-145 prostate
[3] = test system: MCF7 breast
[4] = test system: MDA-N
[5] = test system: DMS 114 small cell lung
[6] = test system: M19-MEL melanoma
[7] = test system: DMS 273 small cell lung

SMILES | TGI [1] [µM] | TGI [2] [µM] | TGI [3] [µM] | TGI [4] [µM] | GI50 [1] [µM] | GI50 [2] [µM] | GI50 [3] [µM] | TGI [5] [µM] | TGI [6] [µM] | TGI [7] [µM]
CC(=O)O[C@H]1C(=O)[C@@]2(C)[C@H]([C@H](OC(=O)c3ccccc3)[C@@]3(O)C[C@H](O)C(C)=C1C3(C)C)[C@]1(OC(C)=O)CO[C@@H]1C[C@@H]2O | > 100 | > 100 | > 100 | 17.1 |  |  |  |  |  | 
C/C=C(/C)C(=O)OC1C=C(CO)C(=O)C(OC(=O)C(C)(O)C(C)Cl)C1C(C)C (configuration not stated) | 4.71 | 2.4 | 3.09 |  | 1.95 | 1.13 | 0.552 |  |  | 
C=C1NC(=O)C(CC(C(=O)C(=O)Nc2c(C)cccc2C(C)(C)C)C(=O)c2ccc3ccccc3c2)C(=O)N1 (configuration not stated) | > 100 | > 100 | > 100 | > 100 |  |  |  |  |  | 
O=C(c1ccccc1)c1c(CC(O)c2ccccc2)n(C(=O)c2ccccc2)c2ccccc12 (configuration not stated) |  |  |  |  |  |  |  | > 100 | > 100 | > 100
CC1CCc2c(c(CC3CC(=O)NC(=O)C3)nn2-c2ccccc2)C1 (configuration not stated) | > 100 | > 100 | > 100 | > 100 |  |  |  |  |  | 
COc1cc2ncn(-c3cc(OCc4ccccc4C(F)(F)F)c(C(C)=O)s3)c2cc1OC | > 25 | > 25 | > 25 |  | > 25 | > 25 | > 25 |  |  | 
CCCN1C(=O)/C(=C/c2ccc(O)cc2)SC1=Nc1ccc(OC)cc1 | 34.9 | 29.5 | 94.2 |  | 15.3 | 10.3 | 23.2 |  |  | 
CCc1nc2cc(/C=C/C(=O)NO)ccc2c(=O)n1CCc1ccc(F)cc1 | 9.14 | 8.67 | > 100 |  | 2.84 | 1.94 | 1.31 |  |  | 
Cc1nnc(-c2ccc(C)c(-c3ccc(C(=O)NCc4ccc(Cl)cc4)cc3)c2)o1 | > 25 | > 25 | > 19 |  | 14.7 | 16.2 | 7.37 |  |  | 
CC[C@@H](C)Nc1cc(C(=O)NC2CC3CCC(C2)N3c2ccc(C(=O)C3CC3)cn2)c(C)cc1C(N)=O (some centres not stated) | > 84.9 | > 62.9 | > 59.6 |  | 5.54 | 0.0663 | < 0.0172 |  |  | 
COC(=O)c1ccc2c(c1)c1c(C)c3ccncc3c(C)c1n2C | 36.2 | > 100 | 1.77 |  | 0.925 | 0.313 | 0.267 |  |  | 
CO[C@@H]1[C@H]2[C@@H](C)c3ccoc3C[C@@H]2[C@@]2(C)CC[C@H](OC(=O)c3ccccc3)[C@](C)(C(=O)O)[C@]2(O)[C@@H]1OC(=O)c1ccccc1 | 29.7 | > 50 | > 50 |  | 8.99 | 12.1 | 17.4 |  |  | 
Cc1c(C2Cc3ccccc3N2)c2ccccc2n1C (configuration not stated) |  |  |  |  |  |  |  | > 100 | > 100 | > 100
CCOC(=O)c1c2cccccc2n2c(=O)cc(C)nc12 |  |  |  |  |  |  |  |  |  | > 100
Cc1cc(NNC(=O)c2ccccc2O)nc(Nc2nc3ccccc3o2)n1 | 28.2 | 18.3 | 20.7 |  | 4.52 | 1.83 | 1.88 |  |  | 
CN1CCN(Cc2ccc(NC(=O)c3cncc(C#Cc4cnn5ccccc45)c3)cc2C(F)(F)F)CC1 | 4.11 | 3.95 | 2.29 |  | 1.47 | 1.17 | 0.408 |  |  | 
Nc1nc(N)c(N=Nc2ccc(C(=O)O)c(O)c2)c(N)n1 | > 100 | > 100 | > 100 | > 100 |  |  |  |  |  | 
CCCCCCCCCCCCCC(=O)OCC1OC(n2cc(F)c(=O)[nH]c2=O)C(N)C(OC(=O)CCCCCCCCCCCCC)C1O (configuration not stated) |  |  |  |  |  |  |  | > 100 | > 100 | > 100
CCOc1c(C#N)c2c(N)ncnc2n1C1OC(CO)C(O)C1O (configuration not stated) | 19 | 11.8 | > 100 |  | 2.58 | 2.72 | 2.45 |  |  | 
COC(=O)C(=O)C(C(=O)C(=O)Nc1ccc(C)cc1)c1nc2ccc(C(=O)c3ccccc3)cc2[nH]c1=O (configuration not stated) | > 100 |  |  | > 100 |  |  |  |  |  | 
N#Cc1c(N)nc(N2CCSCC2)c(C#N)c1-c1ccc(O)cc1 | 98 | > 100 | 40.2 |  | 23.3 | 27.1 | 14.1 |  |  | 
CC(=O)C1CCC2C3CC=C4CC(SC(=N)N)CCC4(C)C3CCC12C (configuration not stated) |  | 10.3 |  |  |  | 3.13 |  |  |  | 
C1CCN2CC3CCCN4CCCC(C2C1)C34 (configuration not stated) | > 100 | > 100 | > 100 | > 100 |  |  |  |  |  | 

SMILES | TGI [1] [µM] | TGI [2] [µM] | TGI [3] [µM] | TGI [4] [µM] | GI50 [1] [µM] | GI50 [2] [µM] | GI50 [3] [µM] | TGI [5] [µM] | TGI [6] [µM] | TGI [7] [µM]
CCN(CC)CC(C)(C)C(=O)/C=C/c1ccc(/C=C/C(=O)C(C)(C)CN(CC)CC)cc1 |  | 5.29 |  | 1.66 |  |  |  | 0.876 | 4.23 | 
CC(CCCC1SCC2NC(=O)NC21)C(=O)O (configuration not stated) | > 100 | > 100 | > 100 | > 100 |  |  |  |  |  | 
O=C(Nc1ccc2c(c1)OCO2)C(=O)c1c[nH]c2cc(F)ccc12 | 98.7 | 44.6 | > 100 |  | 9.35 | 3.52 | 6.91 |  |  | 
COc1ccc(/C=C2\CC(C)CC3C2=NN(c2ccccc2)C3c2ccc(OC)c(OC)c2)cc1OC (configuration not stated) | 79.7 | > 100 | 42.6 |  | 4.58 | 4.17 | 3.23 |  |  | 
CC1CC(C)C2=NOS3=C2C1=NO3 (configuration not stated) |  | > 100 | > 100 | > 100 |  |  |  |  |  | 
COC(=O)C1=C(C(=O)OC)C2OC1c1cc3ccccc3cc12 | 12 | 21.6 | 59.9 | 17.5 |  |  |  |  |  | 
C[C@@H]1CC[C@@H]2[C@@H](C)C[C@H]3[C@@H]4C(C)(C)OC(=O)[C@]4(C)C(=O)[C@@]23C1=O | > 100 | > 100 | > 100 |  |  |  |  |  |  | 
CCCCCCN(C)Cc1ccc(OCCOc2ccc(CN(C)CCCCCC)cc2)cc1 | 3.01 | 10.5 | 2.79 |  | 1.47 | 2.57 | 1.4 |  |  | 
O=S(=O)(Nc1ccc2ccccc2c1)c1ccc(-c2cnc(C3CC3)o2)cc1 | 19.3 | 20.4 | 25 |  | 2.81 | 2.96 | 0.478 |  |  | 
COC(=O)C1=C(O)[C@H](C(=O)OC)[C@]2(O)[C@@H](C(=O)OC)[C@H]1C[C@@H](c1ccc(OC(=O)/C=C/c3ccco3)cc1)[C@@H]2C(=O)OC | 49.4 |  | > 100 |  | 22.5 |  | 40.5 |  |  | 
NNC(=S)Nc1cccc(Cl)c1 | > 100 | > 100 | > 100 | > 100 |  |  |  |  |  | 
COc1ccc2c(c1)N(CCO)C1=C(C(=O)OC1)C2c1ccccc1 (configuration not stated) | > 50 | 6.01 | > 50 |  | 4.03 | 1.74 | 1.86 |  |  | 
O=C(Cn1c(C(=O)c2ccccc2)nc2ccccc21)c1ccc(F)cc1 | > 100 | > 100 | > 72 |  | 9.76 | > 48.7 | 3.27 |  |  | 
Cc1cn2c(/C=C3/C(=O)Nc4ccc(F)cc43)c(C)nc2s1 | > 50 | 32.3 | > 50 |  | 8.52 | 9.58 | 1.92 |  |  | 
O=C(Nc1nc(-c2ccc(Cl)cc2)nc2c1sc(=S)n2-c1ccccc1)C(F)(F)F | 38.2 | 25.3 | > 100 |  | 6.37 | 4.32 | 10.2 |  |  | 
COc1ccc(CNc2cnc3cc(N)cc(N)c3n2)cc1 | 37.5 | 49.2 | > 100 |  | 17.8 | 19.4 | 37.5 |  |  | 
CC[C@]12C=CCN3CC[C@@]4(c5ccc(OC)cc5N(C)[C@H]4[C@@](O)(C(=O)OC)[C@@H]1OC(=O)CCC(=O)N[C@H](Cc1c[nH]c4ccccc14)C(=O)OC)[C@@H]32 | 41 | 20.3 | 16.1 |  | 7.68 | 4.44 | 2.98 |  |  | 
O=C(NN1C(=O)CSC12CCCC2)C(O)c1ccccc1 (configuration not stated) | > 100 | > 100 | > 100 |  | > 100 | > 100 | > 100 |  |  | 
C=C1C(=O)OC2CC3(C)CCCC(C)C3=CC12 (configuration not stated) | 18.5 | 14.7 | 5.28 | 11.4 |  |  |  |  |  | 
CC(C)CCC(=O)[C@@H](C)[C@H]1[C@@H](OC2OCC(O)C(O)C2NS(C)(=O)=O)C[C@H]2[C@@H]3CC=C4C[C@@H](O)CC[C@]4(C)[C@H]3CC[C@]12C (some centres not stated) | 4.93 | 20.4 | 5.73 |  | 0.245 | 3.42 | 1.26 |  |  | 
CC1=NN(C(=O)c2ccncc2)C(=O)C1N=Nc1ccc2ccccc2c1 (configuration not stated) | > 100 | > 100 | > 100 | 10.2 |  |  |  |  |  | 
CC(C)(C)c1ccc(O)c(CN(Cc2cc(C(C)(C)C)ccc2O)C2CCCCC2)c1 | 46.5 | 45.4 | 35.5 | 28.1 |  |  |  |  |  | 
O=C(NNC(=S)Nc1ccccc1)c1ccccn1 | > 100 | > 100 | > 100 |  | 7.41 | 3.8 | 3.14 |  |  | 
